{
  "source": "patent US20170129932A1",
  "about": "“METHOD FOR PREPARING RECOMBINANT GLYCOPROTEIN HAVING HIGH SIALIC ACID CONTENT, THROUGH GLYCOSPHINGOLIPID SYNTHESIS CYCLE CONTROL” (KOREA ADVANCED INSTITUTE OF SCIENCE AND TECHNOLOGY, priority 2014, published 2017)",
  "key": {"EC2-1H9 cell line [1]": {"system": "EC2-1H9 cell line", "settings": "WGA lectin blotting, EC2-1H9 cells, 1 μM EtDO-P4, FIGS. 1B and 1C", "procedure": "Particularly, in order to treat EtDO-P4, the cells (5×10^6) were cultured in 100-mm plates containing MEM-α supplemented with 10% dFBS for 24 hours. The cells were washed twice with serum-free MEM-α. Then, the cells were added with 1 μM EtDO-P4/MEM-α, followed by further culture for 48 hours."}, "EC2-1H9 cell line [2]": {"system": "EC2-1H9 cell line", "experiment": "Glycosphingolipid (GSL) extraction and TLC in EC2-1H9 cells", "type": "cell-based, Chinese hamster", "settings": "1 μM EtDO-P4, 48 hours, FIG. 1A", "experimental": "Glycosphingolipid (GSL) was sonicated for 30 minutes, followed by extraction using chloroform/methanol (C/M; 2:1, v/v) and isopropanol/hexane/water (IPA/H/W; 55:25:20 v/v/v). The GSL extract was dissolved in 0.1 M NaOH/MeOH, followed by culture for 2 hours at 40 °C. The extract was neutralized with 1 N HCl, to which hexane was added. The mixture stood for 5 minutes. The lower layer was evaporated in the N2 atmosphere, and the remaining part was dissolved in distilled water. The mixture was applied to […] (Varian, Palo Alto, Calif.). After washed with distilled water, total GSL was extracted with C/M, followed by evaporation. The residue dissolved in C/M was spotted on TLC plate (Silica Gel 60 F-254, Merck), followed by development in C/M/0.2% CaCl2 (55:40:10, v/v/v). The plate was then stained with 2% orcinol in 2 M H2SO4 by spraying."}},
  "data": [
    {"smiles": "CCCCCCCCCCCCCCCC(=O)N[C@H](CN1CCCC1)[C@H](O)c1ccc2c(c1)OCCO2", "note": "[EtDO-P4, D-threo-1-(3′,4′-ethylenedioxy)-phenyl-2-palmitoylamino-3-pyrrolidino-1-propanol]", "values": [
      {"measurement": "increase of sialic acid content of purified rhEpo", "setting": "EC2-1H9 cell line [1]", "result": "up to 22%"},
      {"measurement": "major GSLs, GM1, GM2, and GM3", "setting": "EC2-1H9 cell line [2]", "result": "reduced completely"}
    ]}
  ]
}
